Test results: ChEMBL document CHEMBL1145349, “Discovery of 3-hydroxy-4-carboxyalkylamidino-5-arylamino-isothiazoles as potent MEK1 inhibitors” (Bioorg Med Chem Lett, 2006)

Target: Dual specificity mitogen-activated protein kinase kinase 1 (Homo sapiens, UniProt Q02750)
Experiment: Inhibition of MEK1

Dual specificity mitogen-activated protein kinase kinase 1, sequence (Q02750 whole entry): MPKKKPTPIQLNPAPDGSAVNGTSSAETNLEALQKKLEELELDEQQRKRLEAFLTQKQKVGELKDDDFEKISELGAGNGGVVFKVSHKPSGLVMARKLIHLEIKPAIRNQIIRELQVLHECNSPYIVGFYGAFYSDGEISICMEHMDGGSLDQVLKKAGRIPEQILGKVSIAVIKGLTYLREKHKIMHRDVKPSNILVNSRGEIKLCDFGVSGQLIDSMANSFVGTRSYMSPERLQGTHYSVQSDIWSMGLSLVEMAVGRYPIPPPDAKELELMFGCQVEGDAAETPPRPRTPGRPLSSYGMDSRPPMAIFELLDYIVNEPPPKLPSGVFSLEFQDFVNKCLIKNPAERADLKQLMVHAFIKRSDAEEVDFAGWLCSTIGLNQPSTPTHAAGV

With `CC(Nc1snc(O)c1C#N)c1ccccc1` (configuration not stated) the IC50 was greater than 5 µM.

In the case of `N#Cc1c(O)nsc1NCCc1cccs1`, the IC50 is reported as greater than 5 µM.

`N#Cc1c(O)nsc1Nc1ccccc1` gave an IC50 of 7 µM.

For `COc1cc(Nc2snc(O)c2-c2nn[nH]n2)cc(OC)c1`, the IC50 was greater than 2 µM.

Work on `COC(=O)c1cccc(Nc2s[nH]c(=O)c2C#N)c1` yielded an IC50 greater than 5 µM.

Compound `COCCCNc1snc(O)c1C#N` has an IC50 greater than 5 µM.

Work on `N#Cc1ccc(Nc2s[nH]c(=O)c2C#N)cc1` yielded an IC50 greater than 5 µM.

`N#Cc1c(O)nsc1Nc1ccccc1C(F)(F)F` showed an IC50 greater than 5 µM.

With `COc1cccc(Nc2snc(O)c2C#N)c1` the IC50 was greater than 5 µM.

`N#Cc1c(O)nsc1NCCc1ccccc1` showed an IC50 greater than 5 µM.

`CC(C)Nc1snc(O)c1C#N` gave an IC50 greater than 5 µM.

Compound `N#Cc1c(NCC2CCCCC2)s[nH]c1=O` has an IC50 greater than 5 µM.

Work on `Cc1ccc(Nc2snc(O)c2C(=N)NN2CCCCC2)cc1` yielded an IC50 greater than 2 µM.

`N#Cc1c(O)nsc1Nc1cccnc1` showed an IC50 greater than 5 µM.

Work on `N#Cc1c(O)nsc1Nc1cccc([N+](=O)[O-])c1` yielded an IC50 greater than 5 µM.

With `N#Cc1c(O)nsc1Nc1ccc([N+](=O)[O-])cc1` the IC50 was greater than 5 µM.

`N#Cc1c(O)nsc1NCCc1ccc(O)cc1` showed an IC50 greater than 5 µM.

Work on `COc1nsc(Nc2ccccc2)c1C#N` yielded an IC50 greater than 5 µM.

`Cc1ccccc1Nc1snc(O)c1C#N` showed an IC50 greater than 5 µM.

For `Cc1cccc(Nc2s[nH]c(=O)c2C#N)c1`, the IC50 was greater than 5 µM.

`CCCCNc1snc(O)c1C#N` showed an IC50 greater than 5 µM.

`Cc1ccc(Nc2snc(O)c2/C(N)=N/O)cc1` showed an IC50 greater than 2 µM.

Compound `N#Cc1c(O)nsc1Nc1ccccc1[N+](=O)[O-]` has an IC50 greater than 5 µM.

For `N#Cc1c(O)nsc1NCCCN1CCOCC1`, the IC50 was greater than 5 µM.

`N#Cc1c(O)nsc1N1CCCCC1` was tested, and the IC50 was greater than 5 µM.

`COc1ccccc1Nc1snc(O)c1C#N` showed an IC50 greater than 5 µM.

In the case of `COc1ccc(Nc2snc(O)c2C#N)cc1`, the IC50 is reported as greater than 5 µM.

With `CC(C)c1ccc(Sc2snc(O)c2C#N)cc1` the IC50 was greater than 5 µM.

`N#Cc1c(O)nsc1Oc1ccc(Oc2ccccc2)cc1` showed an IC50 greater than 5 µM.

`Cn1sc(Nc2ccccc2)c(C#N)c1=O` was tested, and the IC50 was greater than 5 µM.

With `N#Cc1c(O)nsc1Nc1ccc(Cl)cc1` the IC50 was 0.41 µM.

Compound `Cc1ccc(Nc2snc(O)c2C#N)cc1` has an IC50 greater than 5 µM.
